SMILES strings stand for the structures.

T1 sequence (Q9Y5N1 whole entry): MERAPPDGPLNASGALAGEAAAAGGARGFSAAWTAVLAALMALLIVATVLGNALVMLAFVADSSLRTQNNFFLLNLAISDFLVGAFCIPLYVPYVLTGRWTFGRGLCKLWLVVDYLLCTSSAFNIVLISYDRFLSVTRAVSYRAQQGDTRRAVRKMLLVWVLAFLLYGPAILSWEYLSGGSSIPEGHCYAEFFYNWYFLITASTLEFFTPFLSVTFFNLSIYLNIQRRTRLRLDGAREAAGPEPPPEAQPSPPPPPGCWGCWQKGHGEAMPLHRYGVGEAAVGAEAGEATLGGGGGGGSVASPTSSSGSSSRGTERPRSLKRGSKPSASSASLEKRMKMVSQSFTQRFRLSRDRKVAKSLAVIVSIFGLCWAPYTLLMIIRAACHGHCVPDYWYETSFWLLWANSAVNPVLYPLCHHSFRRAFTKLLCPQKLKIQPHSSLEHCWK

This assay has as its target T1, human H3R (Homo sapiens, UniProt Q9Y5N1).
T1 construct: expressed in transfected cells; host or cells: CHO cells
The experiment in a line: Binding assay with 3H-(R)α-methylhistamine (competition binding). As to conditions: competition binding vs 3H(R)α-methylhistamine (1 nM), membrane of the human H3R-CHO cell line; Ki calculated from IC50 by Cheng-Prusoff equation. As to the method: Binding Assay with ^3H—(R)α-methylhistamine
Saturation binding experiments were performed using HR3-CHO membranes prepared as described in Takahashi, K, Tokita, S., Kotani, H. (2003) J. Pharmacol. Exp. Therapeutics 307, 213-218.
An appropriate amount of membrane (60 to 80 μg protein/well) was incubated with increasing concentrations of ^3H(R)α-Methylhistamine di-hydrochloride (0.10 to 10 nM). Non specific binding was determined using a 200 fold excess of cold (R)α-methyl-histamine dihydrobromide (500 nM final concentration). The incubation was carried out at room temperature (in deep-well plates shaking for three hours). The final volume in each well was 250 μl. The incubation was followed by rapid filtration on GF/B filters (pre-soaked with 100 μl of 0.5% PEI in Tris 50 mM shaking at 200 rpm for two hours). The filtration was made using a cell-harvester and the filter plates were then washed five times with ice cold washing buffer containing 0.5 M NaCl. After harvesting, the plates were dried at 55° C. for 60 min, then scintillation fluid (Microscint 40, 40 microl in each well) was added and the amount of radioactivity on the filter was determined in Packard top-counter after shaking the plates for two hours at 200 rpm at room temperature.
Binding Buffer: 50 mM Tris-HCl pH 7.4 and 5 mM MgCl2×6H2O pH 7.4. Washing Buffer: 50 mM Tris-HCl pH 7.4 and 5 mM MgCl2×6H2O and 0.5 M NaCl pH 7.4.
Indirect measurement of affinity of H3R inverse agonists: twelve increasing concentrations (ranging from 10 μM to 0.3 nM) of the selected compounds were always tested in competition binding experiments using membrane of the human H3R—CHO cell line. […]
All compounds were tested at a single concentration in duplicate. […] Ki's were calculated from IC50 based on Cheng-Prusoff equation (Cheng, Y, Prusoff, W H (1973) Biochem Pharmacol 22, 3099-3108): Ki=IC50/[1+D/Kd] wherein D is the concentration of the radioligand and Kd is the binding constant for the radioligand binding to the receptor under the conditions used in the competition experiment.
The term Ki denotes a measure of affinity in units of concentration, obtained from inhibition or displacement. For the compound `CC(C)N1CCN(C(=O)c2ccc3c(ccn3CCCN3CCCCC3C)c2)CC1` (stereo not drawn) [Example 59, (4-isopropyl-piperazin-1-yl)-{1-[3-(2-methyl-piperidin-1-yl)-propyl]-1H-indol-5-yl}-methanone], the inhibitory constant (Ki) is 15.4 nM.

Regarding `O=C(c1ccc2c(ccn2CC2CCCN(Cc3ccccc3)C2)c1)N1CCN(C2CCCC2)CC1` (stereo not drawn) [Example 11, [1-(1-benzyl-piperidin-3-ylmethyl)-1H-indol-5-yl]-(4-cyclopentyl-piperazin-1-yl)-methanone], the Ki is 12.1 nM.

Consider `CCN1CCC(n2ccc3cc(C(=O)N4CCN(C5CCCC5)CC4)ccc32)C1` (stereo not drawn) [Example 6, (4-cyclopentyl-piperazin-1-yl)-[1-(1-ethyl-pyrrolidin-3-yl)-1H-indol-5-yl]-methanone], for which the Ki is 5.9 nM.

Values taken from US7432255B2, “1H-indol-5-yl-piperazin-1-yl-methanone derivatives” (Hoffmann-La Roche Inc., priority 2006, dated 2008).
